Values quoted from earlier work, collected in US20080166406A1, “Rapidly Disintegrating Dosage Form Comprising Magnesium Carbonate Heavy” (priority 2005, published 2008).

Details: water, neutral pH, acidic pH; general statement

Q: Which Solubility does the source give for `Cc1cc2c(s1)Nc1ccccc1N=C2N1CCN(C)CC1` [Olanzapine] here?
A: Its Solubility is “insoluble in water and neutral pH but more soluble at acidic pH”.
